The values below come from patent US8937091B2 (Japan Science and Technology Agency, priority 2009, dated 2015).

Assay [1] relates to SOCE (store operated calcium entry) in CHO cells. The assay can be described thus: Assay of SOCE (store operated calcium entry)-inhibiting action. It is filed as cell-based, Chinese hamster. As to conditions: CHO cells, thapsigargin; for inhibition at 10 µM / inhibition at 30 µM / inhibition at 100 µM: Cricetulus griseus, CHO, read-out: SOCE level (percentage of inhibition). In a few lines:
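CHO cells in calcium-free BSS received compound, then 1 μM thapsigargin 2 min later to deplete stores; after 9 min, 2 mM calcium chloride (final) added. Percent inhibition of the rise in intracellular calcium determined at various compound concentrations.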

The test system of assay [2] is IICR (IP3 induced calcium release) in CHO cells. Put plainly: Assay of IICR (IP3 induced calcium release)-inhibiting action. It is filed as cell-based, Chinese hamster. The settings on record: CHO cells, 10 μM ATP; for inhibition at 10 µM / inhibition at 30 µM / inhibition at 100 µM: Cricetulus griseus, CHO, read-out: IICR level (percentage of inhibition). In a few lines:
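Inhibition (%) of the intracellular calcium increase triggered by 10 μM ATP, measured in CHO cells in BSS with calcium. Compound given 1 min after the buffer exchange and 2 min before ATP; values reported per compound concentration.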

In the case of `NCCSSCCN(CCC(=O)c1ccc(Br)cc1)CCC(=O)c1ccc(Br)cc1` [Example 367, N,N-bis(2-(4-bromo-benzoyl)ethyl)cystamine], the inhibition at 10 µM in assay [1] (test compound 10 μmol) and in assay [2] (test compound 10 μmol) was 0% throughout. The figures for the inhibition at 30 µM in assay [1] (test compound 30 μmol) and in assay [2] (test compound 30 μmol) were 17% and 0%, respectively. The inhibition at 100 µM in assay [1] (test compound 100 μmol) is 96%; in assay [2] (test compound 100 μmol), 70%.

For `CCc1nccnc1C(=O)CCN(CCO)CCO` [Example 260, 2-(N-bis-hydroxyethyl)aminoethyl-3-ethyl-2-pyrazylketone], the results for the inhibition at 10 µM in assay [1] (test compound 10 μmol) and in assay [2] (test compound 10 μmol) were 0% and 20%, respectively. The inhibition at 30 µM in assay [1] (test compound 30 μmol) and in assay [2] (test compound 30 μmol) was 0% throughout. Also, the results for the inhibition at 100 µM in assay [1] (test compound 100 μmol) and in assay [2] (test compound 100 μmol) were 0% and 20%, respectively.

As to `CCC(C)N(CCC(=O)c1ccc(Br)s1)C(C)CC` (centres unmarked) [Example 339, 2-(N,N-di-sec-butyl)aminoethyl-5-bromo-2-thienylketone], the inhibition at 10 µM in assay [1] (test compound 10 μmol) worked out at 0%; in assay [2] (test compound 10 μmol) it was 50%. Also, the inhibition at 30 µM in assay [1] (test compound 30 μmol) was 8%; in assay [2] (test compound 30 μmol) it was 80%. In addition, the inhibition at 100 µM was determined as 61% in assay [1] (test compound 100 μmol) and 60% in assay [2] (test compound 100 μmol).

In the case of `CC(O)CNCCC(=O)c1ccc(Br)s1` (centres unmarked) [Example 360, 2-(N-2-hydroxypropyl)aminoethyl-5-bromo-2-thienylketone], the figures for the inhibition at 10 µM in assay [1] (test compound 10 μmol) and in assay [2] (test compound 10 μmol) were 10% and 0%, respectively. The inhibition at 30 µM in assay [1] (test compound 30 μmol) and in assay [2] (test compound 30 μmol) was 0% each time. In addition, the inhibition at 100 µM in assay [1] (test compound 100 μmol) was 20%; in assay [2] (test compound 100 μmol), 70%.

In the case of `CC(O)CNCCC(=O)c1cnccn1` (centres unmarked) [Example 281, 2-(N-2-hydroxypropyl)aminoethyl-2-pyrazylketone], the inhibition at 30 µM in assay [1] (test compound 30 μmol) was 0%; in assay [2] (test compound 30 μmol) it was 20%. Further, the inhibition at 100 µM was found to be 0% in assay [1] (test compound 100 μmol) and 50% in assay [2] (test compound 100 μmol). Moreover, the inhibition at 10 µM in assay [2] (test compound 10 μmol) was found to be 20%.

For `CN1CCN(CCC(=O)c2ccccc2)CC1` [Example 131, 2-(N-methylpiperazyl)ethylphenylketone], the inhibition at 10 µM in assay [1] (test compound 10 μmol) amounted to 0%; in assay [2] (test compound 10 μmol) it was 30%. The inhibition at 30 µM in assay [1] (test compound 30 μmol) came out at 0%; in assay [2] (test compound 30 μmol), 20%. Besides, the inhibition at 100 µM in assay [1] (test compound 100 μmol) worked out at 0%; in assay [2] (test compound 100 μmol), 50%.

Consider `O=C(CCNC(c1ccccc1)C(O)c1ccccc1)c1ccco1` (centres unmarked) [Example 272, 2-(N-1,2-diphenyl-2-hydroxyethyl)aminoethyl-2-furylketone], for which the inhibition at 30 µM in assay [1] (test compound 30 μmol) and in assay [2] (test compound 30 μmol) was 20% in each case. The inhibition at 100 µM in assay [1] (test compound 100 μmol) was 40%; in assay [2] (test compound 100 μmol), 20%. Also, the inhibition at 10 µM in assay [2] (test compound 10 μmol) was 40%.

`CN(CCC(=O)c1cccnc1)Cc1ccccc1` [Example 248, 2-(N-benzylmethyl)aminoethyl-3-pyridylketone]: the inhibition at 10 µM in assay [1] (test compound 10 μmol) and in assay [2] (test compound 10 μmol) was 0% in each case. Further, the inhibition at 30 µM in assay [1] (test compound 30 μmol) was 0%; in assay [2] (test compound 30 μmol) it was 10%. The inhibition at 100 µM was 0% in assay [1] (test compound 100 μmol) and 80% in assay [2] (test compound 100 μmol).

As for `CCN(CCC(=O)c1ccc(C)o1)Cc1ccccc1` [Example 239, 2-(N-benzylethyl)aminoethyl-5-methyl-2-furylketone], the inhibition at 10 µM in assay [1] (test compound 10 μmol) and in assay [2] (test compound 10 μmol) was 0% in each case. The inhibition at 30 µM in assay [1] (test compound 30 μmol) came out at 0%; in assay [2] (test compound 30 μmol), 50%. Further, the inhibition at 100 µM in assay [1] (test compound 100 μmol) is 10%; in assay [2] (test compound 100 μmol), 80%.

`Cc1cccc2cc(C(=O)CCN(c3ccccc3)c3ccccc3)ccc12` [Example 80, 2-(N-diphenyl)aminoethyl-5-methyl-2-naphthylketone]: the inhibition at 10 µM in assay [1] (test compound 10 μmol) and in assay [2] (test compound 10 μmol) was 10% each time. Also, the inhibition at 30 µM is 30% in assay [1] (test compound 30 μmol) and 50% in assay [2] (test compound 30 μmol). The inhibition at 100 µM in assay [1] (test compound 100 μmol) is 50%; in assay [2] (test compound 100 μmol), 90%.

Turning to `C=CCC(=O)c1cccc2ccccc12` [Example 93, Allyl-1-naphthylketone], the figures for the inhibition at 10 µM in assay [1] (test compound 10 μmol) and in assay [2] (test compound 10 μmol) were 0% and 20%, respectively. For the same molecule, the inhibition at 30 µM worked out at 0% in assay [1] (test compound 30 μmol) and 70% in assay [2] (test compound 30 μmol). In addition, the inhibition at 100 µM in assay [1] (test compound 100 μmol) stood at 30%; in assay [2] (test compound 100 μmol), 90%.

Regarding `CCN(CCC(=O)c1ccc(C)s1)Cc1ccccc1` [Example 319, 2-(N-benzylethyl)aminoethyl-5-methyl-2-thienylketone], the inhibition at 10 µM in assay [1] (test compound 10 μmol) came out at 0%; in assay [2] (test compound 10 μmol), 20%. Besides, the inhibition at 30 µM in assay [1] (test compound 30 μmol) and in assay [2] (test compound 30 μmol) was 10% throughout. Moreover, the figures for the inhibition at 100 µM in assay [1] (test compound 100 μmol) and in assay [2] (test compound 100 μmol) were 20% and 70%, respectively.

In the case of `O=C(CCN(CCO)Cc1ccccc1)c1cc(Cl)sc1Cl` [Example 204, 2-(N-2-hydroxyethylbenzyl)aminomethyl-3-(2,5-dichlorothiophenyl)ketone], the inhibition at 10 µM in assay [1] (test compound 10 μmol) and in assay [2] (test compound 10 μmol) was 0% in each case. Further, the inhibition at 30 µM in assay [1] (test compound 30 μmol) was 0%; in assay [2] (test compound 30 μmol), 40%. The inhibition at 100 µM is 50% in assay [1] (test compound 100 μmol) and 70% in assay [2] (test compound 100 μmol).

Consider `O=C(CCNCCO)c1ccco1` [Example 275, 2-(N-2-hydroxyethyl)aminoethyl-2-furylketone], for which the inhibition at 30 µM was determined as 0% in assay [1] (test compound 30 μmol) and 30% in assay [2] (test compound 30 μmol). Further, the figures for the inhibition at 100 µM in assay [1] (test compound 100 μmol) and in assay [2] (test compound 100 μmol) were 0% and 30%, respectively. Further, in assay [2] (test compound 10 μmol), the inhibition at 10 µM came to 30%.

On to `O=C(CCNCC(O)c1ccccc1)c1ccc(Oc2ccccc2)cc1` (centres unmarked) [Example 87, 2-(N-2-hydroxy-2-phenylethyl)aminoethyl-4-phenoxyphenylketone], for which the inhibition at 10 µM in assay [1] (test compound 10 μmol) worked out at 0%; in assay [2] (test compound 10 μmol), 10%. For the same molecule, the inhibition at 30 µM was found to be 0% in assay [1] (test compound 30 μmol) and 10% in assay [2] (test compound 30 μmol). In addition, the inhibition at 100 µM was determined as 20% in assay [1] (test compound 100 μmol) and 90% in assay [2] (test compound 100 μmol).

In the case of `O=C(CCN(CCO)CCO)c1cccnc1` [Example 150, 2-(N-bishydroxyethyl)aminoethyl-3-pyridylketone], the inhibition at 10 µM in assay [1] (test compound 10 μmol) was found to be 0%; in assay [2] (test compound 10 μmol), 30%. In addition, the inhibition at 30 µM in assay [1] (test compound 30 μmol) came out at 0%; in assay [2] (test compound 30 μmol), 20%. The inhibition at 100 µM in assay [1] (test compound 100 μmol) came out at 10%; in assay [2] (test compound 100 μmol), 50%.

On to `Cc1nc(C)c(C(=O)CCN(Cc2ccccc2)C(C)C)s1` [Example 219, 2-(N-benzylisopropyl)aminoethyl-5-(2,4-dimethylthiazolyl)ketone], for which the values for the inhibition at 10 µM in assay [1] (test compound 10 μmol) and in assay [2] (test compound 10 μmol) were 0% and 20%, respectively. The inhibition at 30 µM in assay [1] (test compound 30 μmol) came to 0%; in assay [2] (test compound 30 μmol), 90%. Moreover, the figures for the inhibition at 100 µM in assay [1] (test compound 100 μmol) and in assay [2] (test compound 100 μmol) were 0% and 100%, respectively.

Consider `O=C(CCN(CCO)Cc1ccccc1)c1nccs1` [Example 290, 2-(N-2-hydroxyethylbenzyl)aminoethyl-2-thiazolylketone], for which the inhibition at 30 µM in assay [1] (test compound 30 μmol) was determined as 0%; in assay [2] (test compound 30 μmol) it was 60%. In addition, the inhibition at 100 µM came out at 0% in assay [1] (test compound 100 μmol) and 90% in assay [2] (test compound 100 μmol). The inhibition at 10 µM in assay [2] (test compound 10 μmol) turned out to be 40%.

As for `CN(CCO)CCC(=O)c1ccsc1` [Example 254, 2-(N-2-hydroxyethylmethyl)aminoethyl-3-thiophenylketone], the inhibition at 10 µM in assay [1] (test compound 10 μmol) and in assay [2] (test compound 10 μmol) was 0% in each case. The inhibition at 30 µM amounted to 0% in assay [1] (test compound 30 μmol) and 30% in assay [2] (test compound 30 μmol). The inhibition at 100 µM in assay [1] (test compound 100 μmol) worked out at 0%; in assay [2] (test compound 100 μmol), 40%.

For `O=C(CCNCCO)c1ccc(Br)s1` [Example 358, 2-(N-hydroxyethyl)aminoethyl-5-bromo-2-thienylketone], the “SOCE level (percentage of inhibition)” value in assay [1] (test compound 10 μmol) was 0%; in assay [1] (test compound 30 μmol) it was 4%; in assay [1] (test compound 100 μmol) it was 23%. Besides, the figures for the “IICR level (percentage of inhibition)” value in assay [2] (test compound 10 μmol), in assay [2] (test compound 30 μmol) and in assay [2] (test compound 100 μmol) were 0%, 0% and 70%, respectively.

For the molecule `O=C(CCCCl)c1ccncc1` [Example 192, 3-chloropropyl-4-pyridylketone], the inhibition at 10 µM in assay [1] (test compound 10 μmol) and in assay [2] (test compound 10 μmol) was 0% in each case. Also, the inhibition at 30 µM in assay [1] (test compound 30 μmol) is 10%; in assay [2] (test compound 30 μmol), 0%. For the same molecule, the inhibition at 100 µM stood at 20% in assay [1] (test compound 100 μmol) and 0% in assay [2] (test compound 100 μmol).

Turning to `CC(C)N(CCC(=O)c1ccc(Cc2ccccc2)cc1)Cc1ccccc1` [Example 64, 2-(N-isopropylbenzyl)aminoethyl-4-benzylphenylketone], the results for the “SOCE level (percentage of inhibition)” value in assay [1] (test compound 10 μmol), in assay [1] (test compound 30 μmol) and in assay [1] (test compound 100 μmol) were 0%, 0% and 30%, respectively. Also, the inhibition at 30 µM in assay [2] (test compound 30 μmol) was 70%. In assay [2] (test compound 100 μmol), the inhibition at 100 µM was determined as 96%. Moreover, the “IICR level (percentage of inhibition)” value in assay [2] (test compound 10 μmol) was found to be 50%.

One may read the inhibition as the drop in the measured response relative to a control, in per cent.
